Data from US20080119515A1, “Heterocyclic Kinase Inhibitors: Methods of Use and Synthesis” (priority 2003, published 2008).

The compounds below were run against T1, ZAP-70 (Homo sapiens, UniProt P43403) (assay: DELFIA assay (ZAP-70 kinase, phosphorylation of biotinylated poly(glu,tyr))). Settings: ZAP-70 DELFIA, class symbols; read-out: Activity (IC50 in vitro).
T1 sequence (P43403 1-619): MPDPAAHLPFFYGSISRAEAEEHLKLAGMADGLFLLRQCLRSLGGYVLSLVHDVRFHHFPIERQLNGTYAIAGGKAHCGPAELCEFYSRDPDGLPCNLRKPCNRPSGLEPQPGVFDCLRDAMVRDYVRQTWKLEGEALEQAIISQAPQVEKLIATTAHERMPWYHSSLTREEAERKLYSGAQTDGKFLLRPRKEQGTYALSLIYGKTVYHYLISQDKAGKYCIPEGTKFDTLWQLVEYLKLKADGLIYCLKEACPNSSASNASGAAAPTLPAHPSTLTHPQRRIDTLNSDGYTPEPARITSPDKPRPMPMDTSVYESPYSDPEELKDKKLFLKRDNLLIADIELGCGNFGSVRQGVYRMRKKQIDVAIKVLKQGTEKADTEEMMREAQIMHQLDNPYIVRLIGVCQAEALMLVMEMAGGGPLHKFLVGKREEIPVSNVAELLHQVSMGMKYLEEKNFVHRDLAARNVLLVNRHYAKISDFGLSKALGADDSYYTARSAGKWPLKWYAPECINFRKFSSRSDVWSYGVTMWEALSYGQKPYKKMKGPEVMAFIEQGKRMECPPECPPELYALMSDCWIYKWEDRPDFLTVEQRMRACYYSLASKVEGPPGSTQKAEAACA
Assay type: biochemical
Procedure, shortened: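 3.1 nM ZAP-70 pre-incubated 10 min at room temperature with compound ([…]) and 62.5 nM biotinylated poly(glu,tyr) in 62.5 mM Mops pH 7.0, 12.5 mM MgCl2, 12.5% glycerol, 6.25% DMSO (pre-incubation concentrations); ATP added from 5 mM stock, 30 min reaction, EDTA stop. Phosphorylation read by DELFIA europium anti-phosphotyrosine fluorescence (340/615).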

Compound | IC50
C[C@H](c1cccc2ccccc12)N(C)c1cc(C(=O)N2CCC[C@H]2CN2CCCC2)c2cc(-c3ccc(C#N)cc3)ccc2n1 [Compound 218] | > 10 µM
N#Cc1ccc(-c2ccc3nc(NCc4cccc(Cl)c4)cc(C(=O)N4CCC[C@H]4CN4CCCC4)c3c2)cc1 [Compound 167] | > 10 µM
O=C(c1cc(NCc2ccc(C(F)(F)F)cc2)nc2ccc(-c3ncccn3)cc12)N1CCC[C@H]1CN1CCCC1 [Compound 336] | > 10 µM
O=C(c1cc(NCc2ccc(C(F)(F)F)cc2)nc2ccc(-c3ccc4c(c3)OCO4)cc12)N1CC[C@H]1CN1CCCC1 [Compound 149] | 1 to 10 µM
O=C(c1cc(Nc2cccc(C3CCNC[C@@H]3O)c2)nc2ccc(-c3ccc4c(c3)OCO4)cc12)N1CCCC1CN1CCCC1 (stereo partly drawn) [Compound 430] | < 1 µM
N#Cc1ccc(-c2ccc3nc(NCCc4ccc(Cl)cc4)cc(C(=O)N4CCC[C@H]4CN4CCCC4)c3c2)cc1 [Compound 174] | > 10 µM
CN(C)c1cc(C(=O)N2CCC[C@H]2CN2CCCC2)c2cc(-c3ccc4c(c3)OCO4)ccc2n1 [Compound 59] | 1 to 10 µM
N#Cc1ccc(-c2ccc3nc(NCc4ccc(F)c(Cl)c4)cc(C(=O)N4CCC[C@H]4CN4CCCC4)c3c2)cc1 [Compound 179] | > 10 µM
O=C(c1cc(NCc2ccc(C(F)(F)F)cc2)nc2cc(-c3ccc4c(c3)OCO4)ccc12)N1CCC[C@H]1CN1CCCC1 [Compound 118] | 1 to 10 µM
O=C(c1cc(NCc2ccc(C(F)(F)F)cc2)nc2ccc(C#Cc3ccc(Cl)cc3)cc12)N1CCC[C@H]1CN1CCCC1 [Compound 283] | < 1 µM
FC(F)(F)c1ccc(CNc2cc(C(=S)N3CCC[C@H]3CN3CCCC3)c3cc(-c4ccc5c(c4)OCO5)ccc3n2)cc1 [Compound 373] | 1 to 10 µM
COc1ccc(CCc2cc(C(=O)N3CCC[C@H]3CN3CCCC3)c3cc(-c4ccc5c(c4)OCO5)ccc3n2)cc1 [Compound 409] | > 10 µM
N#C[C@@H]1CCCN1C(=O)c1cc(NCc2ccc(C(F)(F)F)cc2)nc2ccc(-c3ccc4c(c3)OCO4)cc12 [Compound 382] | > 10 µM
C[C@@H](Nc1cc(C(=O)N2CCC[C@H]2CN2CCCC2)c2cc(-c3ccc4c(c3)OCO4)ccc2n1)c1ccc(Cl)cc1 [Compound 330] | < 1 µM
O=C(c1cc(NCc2ccc(C(F)(F)F)cc2)nc2ccc(-c3cc(F)cc(F)c3)cc12)N1CCC[C@H]1CN1CCCC1 [Compound 108] | 1 to 10 µM
O=C(c1cc(NCC(O)c2ccccc2)nc2ccc(-c3ccc4c(c3)OCO4)cc12)N1CCC[C@H]1CN1CCCC1 (stereo partly drawn) [Compound 55] | < 1 µM
N#Cc1ccc(-c2ccc3nc(N(CCCCO)Cc4ccccc4)cc(C(=O)N4CCC[C@H]4CN4CCCC4)c3c2)cc1 [Compound 247] | > 10 µM
NCc1ccc(CNc2cc(C(=O)N3CCC[C@H]3CN3CCCC3)c3cc(-c4ccc5c(c4)OCO5)ccc3n2)cc1 [Compound 437] | < 1 µM
CN(CCO)c1cc(C(=O)N2CCC[C@H]2CN2CCCC2)c2cc(-c3ccc4c(c3)OCO4)ccc2n1 [Compound 74] | 1 to 10 µM

Compound | IC50
CN(CCc1ccccc1)c1cc(C(=O)N2CCC[C@H]2CN2CCCC2)cc(N2CCOCC2)n1 [Compound 370] | > 10 µM
N#Cc1ccc(-c2ccc3nc(N4CCCC(c5cccc(F)c5)C4)cc(C(=O)N4CCC[C@H]4CN4CCCC4)c3c2)cc1 (stereo partly drawn) [Compound 268] | > 10 µM
N#Cc1ccc(-c2ccc3nc(CCc4ccccc4)cc(C(=O)N4CCC[C@H]4CN4CCCC4)c3c2)cc1 [Compound 391] | > 10 µM
N=C([C@@H]1CCCN1C(=O)c1cc(NCc2ccc(C(F)(F)F)cc2)nc2ccc(-c3ccc4c(c3)OCO4)cc12)N1CCCC1 [Compound 381] | > 10 µM
O=C(c1cc(NCc2ccc(C(F)(F)F)cc2)nc2ccc(-c3ccc(F)cc3)cc12)N1CCC[C@H]1CN1CCCC1 [Compound 302] | < 1 µM
CN(CCC#N)c1cc(C(=O)N2CCC[C@H]2CN2CCCC2)c2cc(-c3ccc4c(c3)OCO4)ccc2n1 [Compound 66] | 1 to 10 µM
O=C(Nc1cc(C(=O)N2CCC[C@H]2CN2CCCC2)c2cc(-c3ccc4c(c3)OCO4)ccc2n1)c1ccc(C(F)(F)F)cc1 [Compound 102] | 1 to 10 µM
O=C(c1cc(/C=C/c2ccc(Cl)cc2)nc2ccc(-c3ccc4c(c3)OCO4)cc12)N1CCC[C@H]1CN1CCCC1 [Compound 132] | 1 to 10 µM
N#Cc1ccc(-c2ccc3nc(NCc4cccc(-c5ccccc5)c4)cc(C(=O)N4CCC[C@H]4CN4CCCC4)c3c2)cc1 [Compound 217] | > 10 µM
N#Cc1ccc(-c2ccc3nc(NCc4cccc(C(F)(F)F)c4)cc(C(=O)N4CCC[C@H]4CN4CCCC4)c3c2)cc1 [Compound 157] | > 10 µM
N#Cc1ccc(-c2ccc3nc(NCc4cccc(OC(F)F)c4)cc(C(=O)N4CCC[C@H]4CN4CCCC4)c3c2)cc1 [Compound 319] | < 1 µM
CNC[C@@H]1CCCN1C(=O)c1cc(NCc2ccc(C(F)(F)F)cc2)nc2ccc(-c3ccc4c(c3)OCO4)cc12 [Compound 357] | 1 to 10 µM
CN(Cc1ccccc1)c1cc(C(=O)N2CCC[C@H]2CN2CCCC2)c2cc(-c3ccc4c(c3)OCO4)ccc2n1 [Compound 12] | < 1 µM
C[C@@H](Nc1cc(C(=O)N2CCC[C@H]2CN2CCCC2)c2cc(-c3ccc(C#N)cc3)ccc2n1)c1ccc2ccccc2c1 [Compound 207] | > 10 µM
Nc1ccc(CCc2cc(C(=O)N3CCC[C@H]3CN3CCCC3)c3cc(-c4ccc5c(c4)OCO5)ccc3n2)cc1 [Compound 394] | > 10 µM
Clc1cc(N2CCC[C@H]2CN2CCCC2)nc2ccc(-c3ccc4c(c3)OCO4)cc12 [Compound 101] | 1 to 10 µM
O=C(c1cc(NCc2ccc(C(F)(F)F)cc2)nc2ccc(-c3ccc(SC(F)(F)F)cc3)cc12)N1CCC[C@H]1CN1CCCC1 [Compound 350] | > 10 µM
N#Cc1ccc(-c2ccc3nc(NCc4cc(F)ccc4F)cc(C(=O)N4CCC[C@H]4CN4CCCC4)c3c2)cc1 [Compound 163] | > 10 µM
CN(Cc1ccccc1)c1cc(C(=O)N2CCC[C@H]2CN2CCCC2)cc(/C=C/c2ccc(C(F)(F)F)cc2)n1 [Compound 278] | > 10 µM

Compound | IC50
O=C(c1cc(NCCc2c[nH]cn2)nc2ccc(-c3ccc4c(c3)OCO4)cc12)N1CCC[C@H]1CN1CCCC1 [Compound 49] | 1 to 10 µM
O=C(c1cc(NCc2ccc(C(F)(F)F)cc2)nc2ccc(-c3ccc4c(c3)OCO4)cc12)N1CC=C[C@H]1CN1CCCC1 [Compound 411] | < 1 µM
O=C(c1cc(NCc2ccncc2)nc2ccc(-c3ccc4c(c3)OCO4)cc12)N1CCC[C@H]1CN1CCCC1 [Compound 38] | 1 to 10 µM
N#Cc1ccc(-c2ccc3nc(NCc4cccc5ccccc45)cc(C(=O)N4CCC[C@H]4CN4CCCC4)c3c2)cc1 [Compound 216] | > 10 µM
N#Cc1ccc(-c2ccc3nc(NCc4ccccc4F)cc(C(=O)N4CCC[C@H]4CN4CCCC4)c3c2)cc1 [Compound 158] | > 10 µM
O=C(c1cc(NCc2ccc(C(F)(F)F)cc2)nc2ccc(-c3ccc4c(c3)OCCO4)cc12)N1CCC[C@H]1CN1CCCC1 [Compound 126] | < 1 µM
CN1CCN(c2ccc(Nc3cc(C(=O)N4CCCC4CN4CCCC4)c4cc(-c5ccc6c(c5)OCO6)ccc4n3)cc2)CC1 (stereo not drawn) [Compound 429] | < 1 µM
O=C(c1cc(Cc2ccc(N3CCN(CCc4ccncc4)CC3)cc2)nc2ccc(-c3ccc4c(c3)OCO4)cc12)N1CCCC1CN1CCCC1 (stereo not drawn) [Compound 444] | < 1 µM
N#Cc1ccc(-c2ccc3nc(N[C@H]4CCc5ccccc54)cc(C(=O)N4CCC[C@H]4CN4CCCC4)c3c2)cc1 [Compound 183] | > 10 µM
O=C(c1cc(NCc2ccc(C(F)(F)F)cc2)nc2ccc(-c3ccc(Cl)cc3)cc12)N1CCC[C@H]1CN1CCCC1 [Compound 305] | < 1 µM
O=C(c1cc(NC2CC2)nc2ccc(-c3ccc4c(c3)OCO4)cc12)N1CCC[C@H]1CN1CCCC1 [Compound 2] | 1 to 10 µM
Clc1cc(N2CCC[C@H]2CN2CCCC2)c2cc(-c3ccc4c(c3)OCO4)ccc2n1 [Compound 100] | > 10 µM
O=C(c1cc(NCc2ccc(C(F)(F)F)cc2)nc2ccc(-c3cccc([C@H]4CCNC[C@@H]4O)c3)cc12)N1CCC[C@H]1CN1CCCC1 [Compound 425] | > 10 µM
O=C(Nc1ccc2cn[nH]c2c1)c1cc(NCc2ccccc2)nc2ccc(-c3ccc4c(c3)OCO4)cc12 [Compound 85] | 1 to 10 µM
N#Cc1ccc(-c2ccc3nc(NCc4ccccc4OC(F)F)cc(C(=O)N4CCC[C@H]4CN4CCCC4)c3c2)cc1 [Compound 232] | > 10 µM
N#Cc1ccc(-c2ccc3nc(NCCc4cccc(Cl)c4)cc(C(=O)N4CCC[C@H]4CN4CCCC4)c3c2)cc1 [Compound 196] | > 10 µM
O=C(c1cc(Nc2ccc(F)cc2)nc2ccc(-c3ccc4c(c3)OCO4)cc12)N1CCC[C@H]1CN1CCCC1 [Compound 16] | < 1 µM
O=C(c1cc(Nc2cccc(Br)c2)nc2ccc(-c3ccc4c(c3)OCO4)cc12)N1CCC[C@H]1CN1CCCC1 [Compound 18] | < 1 µM
O=C(c1cc(NC2CCCCC2)nc2ccc(-c3ccc4c(c3)OCO4)cc12)N1CCC[C@H]1CN1CCCC1 [Compound 24] | < 1 µM
